Measurements published in patent US11491120B2, “Pharmacological prophylactics against stress-induced affective disorders in females” (The Trustees of Columbia University in the City of New York, priority 2017, dated 2022).
Entries after “also recorded” stand apart in the source; their conditions may differ.

What was measured:
[1] = tested on: female 129S6/SvEv mice; experiment: Contextual fear conditioning (CFC), 3-shock, freezing in training and context re-exposure; conditions: for Freezing during 3-shock CFC training vs saline: 1 week before CFC
[2] = tested on: female 129S6/SvEv mice; experiment: Forced swim test (FST), immobility time, after stress; conditions: 1 week prophylactic drug
[3] = Contextual Fear Conditioning Re-exposure, Dunnett test Sal vs. drug (0.025), 1 week prophylactic drug
[4] = Contextual Fear Conditioning Re-exposure, Dunnett test Sal vs. drug (0.075), 1 week prophylactic drug
[5] = Contextual Fear Conditioning Re-exposure, Dunnett test Sal vs. drug (0.1), 1 week prophylactic drug
[6] = Contextual Fear Conditioning Re-exposure, Dunnett test Sal vs. drug (0.3), 1 week prophylactic drug
[7] = Contextual Fear Conditioning Re-exposure, Dunnett test Sal vs. drug (2.5), 1 week prophylactic drug
[8] = Contextual Fear Conditioning Re-exposure, Dunnett test Sal vs. drug (10), 1 week prophylactic drug
[9] = Contextual Fear Conditioning Training, Dunnett test Sal vs. drug (0.025), 1 week prophylactic drug
[10] = Contextual Fear Conditioning Training, Dunnett test Sal vs. drug (0.075), 1 week prophylactic drug
[11] = Contextual Fear Conditioning Training, Dunnett test Sal vs. drug (0.1), 1 week prophylactic drug
[12] = Contextual Fear Conditioning Training, Dunnett test Sal vs. drug (0.3), 1 week prophylactic drug
[13] = Contextual Fear Conditioning Training, Dunnett test Sal vs. drug (2.5), 1 week prophylactic drug
[14] = Contextual Fear Conditioning Training, Dunnett test Sal vs. drug (10), 1 week prophylactic drug

For `N[C@]1(c2ccccc2Cl)CCC[C@H](O)C1=O` [(2S,6S)-HNK], the “p, Sal vs. drug, Dunnett test: Freezing (Average), Contextual Fear Conditioning Re-exposure” value (shortened to “p, Sal vs. drug, Dunnett test: Freezing”) ([1]; 0.025 mg/kg, 1 week prophylactic drug) was 0.9898, the “p, Sal vs. drug, Dunnett test: Freezing” value ([1]; 0.075 mg/kg, 1 week prophylactic drug) was 0.4829 and the “Freezing during 3-shock CFC training vs saline” value ([1]; 0.1 mg/kg, female mice) was “froze significantly less”. The “p, Sal vs. drug, Dunnett test: Freezing” value ([1]; 0.1 mg/kg, 1 week prophylactic drug) was 0.9999, the “Freezing during 3-shock CFC training vs saline” value ([1]; 0.3 mg/kg, female mice) was “froze significantly more” and the “p, Sal vs. drug, Dunnett test: Freezing” value ([1]; 0.3 mg/kg, 1 week prophylactic drug) was 0.1973. For the same compound, the “p, Sal vs. drug, Dunnett test: Freezing” value ([1]; 2.5 mg/kg, 1 week prophylactic drug) was 0.9996, the “p, Sal vs. drug, Dunnett test: Freezing” value ([1]; 10 mg/kg, 1 week prophylactic drug) was 0.9896 and the “p, Freezing (min 1-5)” value [1, 3] was 0.9898. For the same compound, the “p, Freezing (min 2)” value [1, 3] was >0.9999, the “p, Freezing (min 3)” value [1, 3] was 0.7775 and the “p, Freezing (min 4)” value [1, 3] was 0.9990. The “p, Freezing (min 5)” value [1, 3] was 0.9996, the “p, Freezing (min 1-5)” value [1, 4] was 0.4829 and the “p, Freezing (min 2)” value [1, 4] was 0.9135. The “p, Freezing (min 3)” value [1, 4] was 0.3091, the “p, Freezing (min 4)” value [1, 4] was 0.5808 and the “p, Freezing (min 5)” value [1, 4] was 0.2703. For the same compound, the “p, Freezing (min 1-5)” value [1, 5] was 0.9999, the “p, Freezing (min 2)” value [1, 5] was 0.9997 and the “p, Freezing (min 3)” value [1, 5] was 0.9998. For the same compound, the “p, Freezing (min 4)” value [1, 5] was 0.9889, the “p, Freezing (min 5)” value [1, 5] was >0.9999 and the “p, Freezing (min 1-5)” value [1, 6] was 0.1973. For the same compound, the “p, Freezing (min 2)” value [1, 6] was 0.2064, the “p, Freezing (min 3)” value [1, 6] was 0.2280 and the “p, Freezing (min 4)” value [1, 6] was 0.8082. The “p, Freezing (min 5)” value [1, 6] was 0.3262, the “p, Freezing (min 1-5)” value [1, 7] was 0.9996 and the “p, Freezing (min 2)” value [1, 7] was 0.9991. For the same compound, the “p, Freezing (min 3)” value [1, 7] was 0.9908, the “p, Freezing (min 4)” value [1, 7] was 0.9997 and the “p, Freezing (min 5)” value [1, 7] was >0.9999. For the same compound, the “p, Freezing (min 1-5)” value [1, 8] was 0.9896, the “p, Freezing (min 2)” value [1, 8] was 0.5764 and the “p, Freezing (min 3)” value [1, 8] was 0.9993. For the same compound, the “p, Freezing (min 4)” value [1, 8] was 0.9991, the “p, Freezing (min 5)” value [1, 8] was >0.9999 and the “p, Freezing (min 1-5)” value [1, 9] was 0.9955. For the same compound, the “p, Freezing (min 4)” value [1, 9] was 0.7894, the “p, Freezing (min 5)” value [1, 9] was >0.9999 and the “p, Freezing (min 1-5)” value [1, 10] was 0.9996. For the same compound, the “p, Freezing (min 4)” value [1, 10] was 0.9991, the “p, Freezing (min 5)” value [1, 10] was >0.9999 and the “p, Freezing (min 1-5)” value [1, 11] was 0.2466. For the same compound, the “p, Freezing (min 4)” value [1, 11] was 0.3064, the “p, Freezing (min 5)” value [1, 11] was 0.5117 and the “* (significance), Freezing (min 1-5)” value [1, 12] was “** (** p<0.01)”. The “p, Freezing (min 1-5)” value [1, 12] was 0.0085, the “p, Freezing (min 4)” value [1, 12] was 0.0675 and the “p, Freezing (min 5)” value [1, 12] was 0.0731. The “p, Freezing (min 1-5)” value [1, 13] was 0.6733, the “p, Freezing (min 4)” value [1, 13] was 0.9438 and the “p, Freezing (min 5)” value [1, 13] was 0.7492. For the same compound, the “p, Freezing (min 1-5)” value [1, 14] was 0.5049, the “p, Freezing (min 4)” value [1, 14] was 0.7737 and the “p, Freezing (min 5)” value [1, 14] was 0.5845. The “Freezing during re-exposure to the CFC training context vs saline” value ([1]; single i.p. injection 1 week before 3-shock CFC, all doses, female mice) was “do not significantly alter freezing; also recorded: did not alter overall freezing”, the “Attenuation of learned fear” value ([1]; single injection 1 week before stressor, female mice) was “do not attenuate learned fear” and the “p, Sal vs. drug, Dunnett test: Immobility Time (min 1), Forced Swim Test Day 2” value ([2]; 0.025 mg/kg) was 0.9954. The “p, Sal vs. drug, Dunnett test: Immobility Time (min 1-6), Forced Swim Test Day 2” value ([2]; 0.025 mg/kg) was 0.9996, the “p, Sal vs. drug, Dunnett test: Immobility Time (min 2), Forced Swim Test Day 2” value ([2]; 0.025 mg/kg) was 0.9993 and the “p, Sal vs. drug, Dunnett test: Immobility Time (min 4), Forced Swim Test Day 2” value ([2]; 0.025 mg/kg) was 0.9518. The “p, Sal vs. drug, Dunnett test: Immobility Time (min 5), Forced Swim Test Day 2” value ([2]; 0.025 mg/kg) was 0.9885, the “p, Sal vs. drug, Dunnett test: Immobility Time (min 6), Forced Swim Test Day 2” value ([2]; 0.025 mg/kg) was >0.9999 and the “p, Sal vs. drug, Dunnett test: Immobility Time Average (min 3-6), Forced Swim Test Day 2” value ([2]; 0.025 mg/kg) was 0.9999. For the same compound, the “* (significance), Sal vs. drug, Dunnett test: Immobility Time (min 1-6), Forced Swim Test Day 2” value ([2]; 0.075 mg/kg) was “** (** p<0.01)”, the “* (significance), Sal vs. drug, Dunnett test: Immobility Time (min 5), Forced Swim Test Day 2” value ([2]; 0.075 mg/kg) was “*** (*** p<0.0001)” and the “* (significance), Sal vs. drug, Dunnett test: Immobility Time (min 6), Forced Swim Test Day 2” value ([2]; 0.075 mg/kg) was “** (** p<0.01)”. For the same compound, the “p, Sal vs. drug, Dunnett test: Immobility Time (min 1), Forced Swim Test Day 2” value ([2]; 0.075 mg/kg) was 0.9993, the “p, Sal vs. drug, Dunnett test: Immobility Time (min 1-6), Forced Swim Test Day 2” value ([2]; 0.075 mg/kg) was 0.0025 and the “p, Sal vs. drug, Dunnett test: Immobility Time (min 2), Forced Swim Test Day 2” value ([2]; 0.075 mg/kg) was 0.9998. For the same compound, the “p, Sal vs. drug, Dunnett test: Immobility Time (min 4), Forced Swim Test Day 2” value ([2]; 0.075 mg/kg) was 0.3169, the “p, Sal vs. drug, Dunnett test: Immobility Time (min 5), Forced Swim Test Day 2” value ([2]; 0.075 mg/kg) was <0.0001 and the “p, Sal vs. drug, Dunnett test: Immobility Time (min 6), Forced Swim Test Day 2” value ([2]; 0.075 mg/kg) was 0.0013. For the same compound, the “p, Sal vs. drug, Dunnett test: Immobility Time Average (min 3-6), Forced Swim Test Day 2” value ([2]; 0.075 mg/kg) was 0.9990 and the “* (significance), Sal vs. drug, Dunnett test: Immobility Time (min 1), Forced Swim Test Day 2” value ([2]; 0.1 mg/kg) was “* (* p<0.05)”.
